# Source: US6525001B1, “Substituted pyrimidine and pyridine herbicides” (Mid-American Commercialization Corporation, priority 1997, dated 2003)
# Legend:
# Format in all cases: in vivo
# Set-up in all cases: key: 0 is no effect; 10 is complete control
# [1] = system: broadleaf signalgrass (Brachiaria decumbens); experiment: Test B pre-/postemergence
# Text: (§1) Seeds of bedstraw (Galium aparine), blackgrass (Alopecurus myosuroides), broadleaf signalgrass (Brachiaria decumbens), cocklebur (Xanthium strumarium), corn (Zea mays), crabgrass (Digitaria sanguinalis), giant foxtail (Setaria faberii), lambsquarters (Chenopodium album), momingglory (Ipomoea hederacea), pigweed (Amaranthus retroflexus), rape (Brassica napus), soybean (Glycine max), sugar beet (Beta vulgaris), velvetleaf (Abutilon theophrasti), wheat (Triticum aestivum), wild oat (Avena fatua) and purple nutsedge (Cyperus rotundus) tubers were planted and treated preemergence with test chemicals formulated in a non-phytotoxic solvent mixture which included a surfactant.
# (§2) At the same time, these crop and weed species were also treated with postemergence applications of test chemicals formulated in the same manner. Plants ranged in height from 2 to 18 cm (1- to 4-leaf stage) for postemergence treatments. Plant species in the flood test consisted of rice (Oryza sativa), smallflower flatsedge (Cyperus difformis), duck salad (Heteranthera limosa) and bamyardgrass (Echinochloa crus-galli) grown to the 2-leaf stage for testing. Treated plants and controls were maintained in a greenhouse for twelve to sixteen days, after which all species were compared to controls and visually evaluated. Plant response ratings, summarized in Table B, are based on a scale of 0 to 10 where 0 is no effect and 10 is complete control. A dash (−) response means no test result.
# [2] = system: crabgrass (Digitaria sanguinalis); experiment: Test B pre-/postemergence
# Text: as §1, §2
# [3] = system: velvetleaf (Abutilon theophrasti); experiment: Test B pre-/postemergence
# Text: as §1, §2
# [4] = system: purple nutsedge (Cyperus rotundus); experiment: Test B pre-/postemergence
# Text: as §1, §2
# [5] = system: blackgrass (Alopecurus myosuroides); experiment: Test B pre-/postemergence
# Text: as §1, §2
# [6] = system: rape (Brassica napus); experiment: Test B pre-/postemergence
# Text: as §1, §2
# [7] = system: corn (Zea mays); experiment: Test B pre-/postemergence
# Text: as §1, §2
# [8] = system: pigweed (Amaranthus retroflexus); experiment: Test B pre-/postemergence
# Text: as §1, §2
# [9] = system: wheat (Triticum aestivum); experiment: Test B pre-/postemergence
# Text: as §1, §2
# [10] = system: cocklebur (Xanthium strumarium); experiment: Test B pre-/postemergence
# Text: as §1, §2
# [11] = system: momingglory (Ipomoea hederacea); experiment: Test B pre-/postemergence
# Text: as §1, §2
# [12] = system: soybean (Glycine max); experiment: Test B pre-/postemergence
# Text: as §1, §2
# [13] = system: giant foxtail (Setaria faberii); experiment: Test B pre-/postemergence
# Text: as §1, §2
# [14] = system: wild oat (Avena fatua); experiment: Test B pre-/postemergence
# Text: as §1, §2
# [15] = system: bedstraw (Galium aparine); experiment: Test B pre-/postemergence
# Text: as §1, §2
# [16] = system: sugar beet (Beta vulgaris); experiment: Test B pre-/postemergence
# Text: as §1, §2
# [17] = system: bamyardgrass (Echinochloa crus-galli); experiment: Test B flood test
# Method in brief: (§3)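 Each value is a visual injury score relative to controls, with 10 meaning complete control and 0 no effect. Evaluation took place twelve to sixteen days after the 2-leaf-stage plants were treated and kept in the greenhouse.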
# [18] = system: smallflower flatsedge (Cyperus difformis); experiment: Test B flood test
# Method in brief: as §3
# [19] = system: rice (Oryza sativa); experiment: Test B flood test
# Method in brief: as §3
# [20] = system: duck salad (Heteranthera limosa); experiment: Test B flood test
# Method in brief: as §3
# [21] = Rate 62 g/ha, Postemergence (flood test)
# [22] = Rate 125 g/ha, Postemergence, flood test
# [23] = Rate 250 g/ha, Postemergence (flood test species)
compound,measurement,setting,value
Cc1cnc(-c2ccc(C(F)(F)F)cc2)nc1C(C)c1cccc(C(F)(F)F)c1 (racemic) [Compound 19],"Plant response rating, B. signalgrass","[1]; Rate 62 g/ha, Postemergence",1
same,B. signalgrass plant response rating,"[1]; Rate 62 g/ha, Preemergence",0
same,"Plant response rating, B. signalgrass","[1]; Rate 125 g/ha, Postemergence",2
same,B. signalgrass plant response rating,"[1]; Rate 125 g/ha, Preemergence",0
same,"Plant response rating, B. signalgrass","[1]; Rate 250 g/ha, Postemergence",2
same,"Plant response rating, B. signalgrass","[1]; Rate 250 g/ha, Preemergence",0
same,"Plant response rating, Crabgrass","[2]; Rate 62 g/ha, Postemergence",1
same,Crabgrass plant response rating,"[2]; Rate 62 g/ha, Preemergence",0
same,"Plant response rating, Crabgrass","[2]; Rate 125 g/ha, Postemergence",2
same,Crabgrass plant response rating,"[2]; Rate 125 g/ha, Preemergence",0
same,"Plant response rating, Crabgrass","[2]; Rate 250 g/ha, Postemergence",2
same,"Plant response rating, Crabgrass","[2]; Rate 250 g/ha, Preemergence",0
same,"Plant response rating, Velvetleaf","[3]; Rate 62 g/ha, Postemergence",1
same,Velvetleaf plant response rating,"[3]; Rate 62 g/ha, Preemergence",0
same,"Plant response rating, Velvetleaf","[3]; Rate 125 g/ha, Postemergence",2
same,Velvetleaf plant response rating,"[3]; Rate 125 g/ha, Preemergence",0
same,"Plant response rating, Velvetleaf","[3]; Rate 250 g/ha, Postemergence",2
same,"Plant response rating, Velvetleaf","[3]; Rate 250 g/ha, Preemergence",0
same,"Plant response rating, Nutsedge","[4]; Rate 62 g/ha, Postemergence",0
same,Nutsedge plant response rating,"[4]; Rate 62 g/ha, Preemergence",0
same,"Plant response rating, Nutsedge","[4]; Rate 125 g/ha, Postemergence",0
same,Nutsedge plant response rating,"[4]; Rate 125 g/ha, Preemergence",0
same,"Plant response rating, Nutsedge","[4]; Rate 250 g/ha, Postemergence",0
same,"Plant response rating, Nutsedge","[4]; Rate 250 g/ha, Preemergence",0
same,"Plant response rating, Blackgrass","[5]; Rate 62 g/ha, Postemergence",1
same,Blackgrass plant response rating,"[5]; Rate 62 g/ha, Preemergence",0
same,"Plant response rating, Blackgrass","[5]; Rate 125 g/ha, Postemergence",1
same,Blackgrass plant response rating,"[5]; Rate 125 g/ha, Preemergence",0
same,"Plant response rating, Blackgrass","[5]; Rate 250 g/ha, Postemergence",1
same,"Plant response rating, Blackgrass","[5]; Rate 250 g/ha, Preemergence",0
same,"Plant response rating, Rape","[6]; Rate 62 g/ha, Postemergence",2
same,Rape plant response rating,"[6]; Rate 62 g/ha, Preemergence",0
same,"Plant response rating, Rape","[6]; Rate 125 g/ha, Postemergence",2
same,Rape plant response rating,"[6]; Rate 125 g/ha, Preemergence",0
same,"Plant response rating, Rape","[6]; Rate 250 g/ha, Postemergence",3
same,"Plant response rating, Rape","[6]; Rate 250 g/ha, Preemergence",0
same,"Plant response rating, Corn","[7]; Rate 62 g/ha, Postemergence",1
same,Corn plant response rating,"[7]; Rate 62 g/ha, Preemergence",0
same,"Plant response rating, Corn","[7]; Rate 125 g/ha, Postemergence",2
same,Corn plant response rating,"[7]; Rate 125 g/ha, Preemergence",0
same,"Plant response rating, Corn","[7]; Rate 250 g/ha, Postemergence",3
same,"Plant response rating, Corn","[7]; Rate 250 g/ha, Preemergence",0
same,"Plant response rating, Redroot pigweed","[8]; Rate 62 g/ha, Postemergence",2
same,Redroot pigweed plant response rating,"[8]; Rate 62 g/ha, Preemergence",0
same,"Plant response rating, Redroot pigweed","[8]; Rate 125 g/ha, Postemergence",5
same,Redroot pigweed plant response rating,"[8]; Rate 125 g/ha, Preemergence",0
same,"Plant response rating, Redroot pigweed","[8]; Rate 250 g/ha, Postemergence",7
same,"Plant response rating, Redroot pigweed","[8]; Rate 250 g/ha, Preemergence",0
same,"Plant response rating, Wheat","[9]; Rate 62 g/ha, Postemergence",0
same,Wheat plant response rating,"[9]; Rate 62 g/ha, Preemergence",0
same,"Plant response rating, Wheat","[9]; Rate 125 g/ha, Postemergence",0
same,Wheat plant response rating,"[9]; Rate 125 g/ha, Preemergence",0
same,"Plant response rating, Wheat","[9]; Rate 250 g/ha, Postemergence",0
same,"Plant response rating, Wheat","[9]; Rate 250 g/ha, Preemergence",0
same,"Plant response rating, Cocklebur","[10]; Rate 62 g/ha, Postemergence",2
same,Cocklebur plant response rating,"[10]; Rate 62 g/ha, Preemergence",0
same,"Plant response rating, Cocklebur","[10]; Rate 125 g/ha, Postemergence",3
same,"Plant response rating, Cocklebur","[10]; Rate 250 g/ha, Postemergence",3
same,"Plant response rating, Cocklebur","[10]; Rate 250 g/ha, Preemergence",0
same,"Plant response rating, Morningglory","[11]; Rate 62 g/ha, Postemergence",3
same,Morningglory plant response rating,"[11]; Rate 62 g/ha, Preemergence",0
same,"Plant response rating, Morningglory","[11]; Rate 125 g/ha, Postemergence",3
same,Morningglory plant response rating,"[11]; Rate 125 g/ha, Preemergence",0
same,"Plant response rating, Morningglory","[11]; Rate 250 g/ha, Postemergence",6
same,"Plant response rating, Morningglory","[11]; Rate 250 g/ha, Preemergence",0
same,"Plant response rating, Soybean","[12]; Rate 62 g/ha, Postemergence",2
same,Soybean plant response rating,"[12]; Rate 62 g/ha, Preemergence",0
same,"Plant response rating, Soybean","[12]; Rate 125 g/ha, Postemergence",3
same,Soybean plant response rating,"[12]; Rate 125 g/ha, Preemergence",0
same,"Plant response rating, Soybean","[12]; Rate 250 g/ha, Postemergence",4
same,"Plant response rating, Soybean","[12]; Rate 250 g/ha, Preemergence",0
same,"Plant response rating, Giant foxtail","[13]; Rate 62 g/ha, Postemergence",0
same,Giant foxtail plant response rating,"[13]; Rate 62 g/ha, Preemergence",0
same,"Plant response rating, Giant foxtail","[13]; Rate 125 g/ha, Postemergence",0
same,Giant foxtail plant response rating,"[13]; Rate 125 g/ha, Preemergence",0
same,"Plant response rating, Giant foxtail","[13]; Rate 250 g/ha, Postemergence",1
same,"Plant response rating, Giant foxtail","[13]; Rate 250 g/ha, Preemergence",0
same,"Plant response rating, Wild oats","[14]; Rate 62 g/ha, Postemergence",0
same,Wild oats plant response rating,"[14]; Rate 62 g/ha, Preemergence",0
same,"Plant response rating, Wild oats","[14]; Rate 125 g/ha, Postemergence",1
same,Wild oats plant response rating,"[14]; Rate 125 g/ha, Preemergence",0
same,"Plant response rating, Wild oats","[14]; Rate 250 g/ha, Postemergence",2
same,"Plant response rating, Wild oats","[14]; Rate 250 g/ha, Preemergence",0
same,"Plant response rating, Bedstraw","[15]; Rate 62 g/ha, Postemergence",2
same,Bedstraw plant response rating,"[15]; Rate 62 g/ha, Preemergence",0
same,"Plant response rating, Bedstraw","[15]; Rate 125 g/ha, Postemergence",3
same,Bedstraw plant response rating,"[15]; Rate 125 g/ha, Preemergence",0
same,"Plant response rating, Bedstraw","[15]; Rate 250 g/ha, Postemergence",3
same,"Plant response rating, Bedstraw","[15]; Rate 250 g/ha, Preemergence",0
same,"Plant response rating, Sugarbeets","[16]; Rate 62 g/ha, Postemergence",2
same,Sugarbeets plant response rating,"[16]; Rate 62 g/ha, Preemergence",0
same,"Plant response rating, Sugarbeets","[16]; Rate 125 g/ha, Postemergence",4
same,Sugarbeets plant response rating,"[16]; Rate 125 g/ha, Preemergence",0
same,"Plant response rating, Sugarbeets","[16]; Rate 250 g/ha, Postemergence",6
same,"Plant response rating, Sugarbeets","[16]; Rate 250 g/ha, Preemergence",0
same,"Plant response rating, Barnyardgrass",[17]; [21],0
same,"Plant response rating, Barnyardgrass",[17]; [22],2
same,"Plant response rating, Barnyardgrass",[17]; [23],3
same,"Plant response rating, S. Flatsedge",[18]; [21],0
same,"Plant response rating, S. Flatsedge",[18]; [22],2
same,"Plant response rating, S. Flatsedge",[18]; [23],6
same,"Plant response rating, Rice",[19]; [21],0
same,"Plant response rating, Rice",[19]; [22],0
same,"Plant response rating, Rice",[19]; [23],2
same,"Plant response rating, Ducksalad",[20]; [21],0
same,"Plant response rating, Ducksalad",[20]; [22],2
same,"Plant response rating, Ducksalad",[20]; [23],7
